Source: patent publication US9487553B2, “Boranophosphate analogues of cyclic nucleotides” (BIOLOG LIFE SCIENCE INSTITUTE FORSCHUNGSLABOR UND …, priority 2011, dated 2016)
Several values for one entry are separate records, joined by “and”; a condition that tells them apart may be missing. Equal values may be shown once.

Tests used:
[1] = target: protein kinase A type I alpha holoenzyme (Homo sapiens, UniProt P10644); assay: Standard photometric (Cook) assay with protein kinase A type I alpha holoenzyme; assay type: biochemical; conditions: holoenzyme RIα
Description: In a first experiment, the biological activity of the Rp- and Sp-isomer of 8-bromoadenosine-3′,5′-cyclic boranophosphate (examples 1 and 2) has been tested with the holoenzyme of protein kinase A type I alpha (FIGS. 3 and 4) using a standard photometric assay (Cook, P. F.; Neville, M. E., Jr.; Vrana, K. E.; Hartl, F. T. and Roskoski, R., Jr., Biochemistry 21, 5794-5799 (1982)).
As a control, two boranophosphate analogues with a 2′-O-methyl modification (Rp-2′-O-Me-cAMPB and Sp-2′-O-Me-cAMPB, examples 7 & 8) have been tested by the same type of assay with protein kinase A type I alpha as well.
FIG. 5 depicts the activity overview of four different cyclic boranophosphate analogues with protein kinase A type I alpha holoenzyme. 9108: Sp-2′-O-Me-cAMPB; 9109: Rp-2′-O-Me-cAMPB; 9110: Sp-8-Br-cAMPB; 9111: Rp-8-Br-cAMPB; controls: B 001: Rp-8-Br-cAMPS. Control: cAMP. “Cook Assay” with Holoenzyme RIα.

[2] = Degradation Example 5: oxidation with hydrogen peroxide, monitored by HPLC; assay type: physicochemical; conditions: after 1 hour at RT
Protocol: Thus, the cyclic boranophosphate 6-chloropurine-1-β-D-ribofuranoside-3′,5′-cyclic boranophosphate, Rp-isomer (Rp-6-Cl-cPuMPB, example 42) together with the corresponding phosphorothioate 6-chloropurine-1-β-D-ribofuranoside-3′,5′-cyclic phosphorothioate, Sp-isomer (Sp-6-Cl-cPuMPS, Biolog) as a control were treated repeatedly with μl doses of 30% aqueous hydrogen peroxide (Merck). During one hour, oxidative degradation was monitored by HPLC (RP-18, 15 Vol.-% acetonitrile, 20 mM triethylammonium formate buffer, pH 6.5, 2 ml/min., UV 263 nm) and corresponding peak areas were recorded, integrated and compared (Tab. 3).

protein kinase G I α = target: T1, protein kinase G I α (Homo sapiens, UniProt Q13976); assay: Protein kinase G I alpha activation, phosphotransferyl assay; assay type: biochemical; conditions: 10 nM, 100 nM and 1 μM
T1 sequence (Q13976 1-671): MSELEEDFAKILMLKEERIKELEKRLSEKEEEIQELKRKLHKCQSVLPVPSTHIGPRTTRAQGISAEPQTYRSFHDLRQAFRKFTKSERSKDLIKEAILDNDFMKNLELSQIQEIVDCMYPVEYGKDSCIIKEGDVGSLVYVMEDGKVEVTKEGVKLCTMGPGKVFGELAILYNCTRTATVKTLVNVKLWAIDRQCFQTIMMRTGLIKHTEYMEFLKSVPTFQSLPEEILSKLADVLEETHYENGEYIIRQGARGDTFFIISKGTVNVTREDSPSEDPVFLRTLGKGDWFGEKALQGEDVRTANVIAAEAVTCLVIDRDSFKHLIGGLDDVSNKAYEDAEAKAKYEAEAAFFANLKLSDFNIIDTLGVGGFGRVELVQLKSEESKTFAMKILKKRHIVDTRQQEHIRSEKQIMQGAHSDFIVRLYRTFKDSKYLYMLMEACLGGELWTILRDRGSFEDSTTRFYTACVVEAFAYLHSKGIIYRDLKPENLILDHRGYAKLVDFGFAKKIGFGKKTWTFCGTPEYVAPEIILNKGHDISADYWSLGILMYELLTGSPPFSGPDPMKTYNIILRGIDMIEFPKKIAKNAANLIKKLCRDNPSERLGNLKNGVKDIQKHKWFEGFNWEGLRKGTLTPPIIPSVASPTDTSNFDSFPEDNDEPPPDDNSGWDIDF
Description: Next, the activity profile of some cyclic boranophosphates disclosed in this invention has also been investigated on protein kinase G I α (FIGS. 8 and 9). Potential activatory potential towards the enzyme has been determined by a standard phosphotransferyl assay protocol according to Dostmann et al. (Dostmann, W. R.; Nickl, C.; Thiel, S.; Tsigelny, I.; Frank, R.; and Tegge, W. J., Pharmacol. Ther., 82, 373-387 (1999). FIG. 8 depicts the activity (μmol×min^−1×mg^−1) overview of six different cyclic boranophosphate analogues with protein kinase G type I at 10 nM, 100 nM and 1 μM. BLG-9108: […]; BLG-9110: Sp-8-Br-cAMPB; BLG-9111: Rp-8-Br-cAMPB; BLG-9112: Sp-8-Br-cGMPB; BLG-9113: Rp-8-Br-cGMPB; control: cyclic GMP.

[3] = Degradation Example 7: oxidation with hydrogen peroxide, monitored by HPLC; assay type: physicochemical; conditions: for oxidation by peroxide: 5 portions of 30% H2O2; for HPLC Area %: hydrogen peroxide
Protocol: The degradation experiment was monitored by HPLC (RP-18, 15 Vol.-% acetonitrile, 20 mM triethylammonium formate buffer, pH 6.5, 1 ml/min., UV 270 nm) and peak areas were recorded.

[4] = Degradation Example 1: oxidation with hydrogen peroxide, monitored by HPLC; assay type: physicochemical; conditions: after further addition of 10 μl of 30% H2O2, two hours at RT
Description: In order to check out the stability of the boranophosphates described in this invention towards oxidising conditions in comparison to the corresponding phosphorothioates, 0.1 μmol of the sodium salts of each, Rp-8-bromoadenosine-3′,5′-cyclic boranophosphate (Rp-8-Br-cAMPB, example 1), Sp-8-bromoadenosine-3′,5′-cyclic boranophosphate (Sp-8-Br-cAMPB, example 2), Rp-8-bromoadenosine-3′,5′-cyclic phosphorothioate (Rp-8-Br-cAMPS, Biolog) and Sp-8-bromoadenosine-3′,5′-cyclic phosphorothioate (Sp-8-Br-cAMPS, Biolog) were dissolved in 100 μl of eluent and the mixture was analyzed by HPLC (RP-18, 11% acetonitrile, 20 mM triethylammonium formate buffer, pH 6.1, 1.5 ml/min, UV 258 nm). The following elution profile was recorded: Rp-8-Br-cAMPS (5:13 min.)<Sp-8-Br-cAMPS (7:23 min.)<Sp-8-Br-cAMPB (9:13 min.)<Rp-8-Br-cAMPB ([…].).
Subsequently, aqueous hydrogen peroxide (Merck) was added in small portions while the stability of the four compounds was permanently monitored over time.
10 μl of H2O2 (0.3%) as well as 10 μl of 3% H2O2 were added to no effect.

[5] = Degradation Example 3: oxidation with hydrogen peroxide, monitored by HPLC; assay type: physicochemical; conditions: after 90 min. at RT
Protocol: Thus, 0.1 μmol of the Rp-isomer of 8-(4-chlorophenylthio)-2′-O-methyladenosine-3′,5′-cyclic boranophosphate (Rp-8-pCPT-2′-O-Me-cAMPB, example 44), dissolved in 300 μl of water, was treated stepwise with 2 μl portions of 30% aqueous hydrogen peroxide solution (Merck). The oxidation process was monitored again by reversed phase HPLC (RP-18, 30 Vol.-% acetonitrile, 20 mM triethylammonium formate buffer, pH 8.3, 2 ml/min, UV 282 nm). As a control, the corresponding cyclic nucleotide with phosphorothioate modification (Sp-8-pCPT-2′-O-Me-cAMPS, Biolog) was added. In summary, 20 μl peroxide, were applied.

[6] = Degradation Example 2: oxidation with hydrogen peroxide, monitored by HPLC; assay type: physicochemical
Protocol: Thus, 0.05 μmol of the Rp-isomer of 8-(4-chlorophenylthio)adenosine-3′,5′-cyclic boranophosphate (Rp-8-pCPT-cAMPB, example 9), was treated stepwise with 5 μl portions of 30% aqueous hydrogen peroxide solution (Merck) every 30 min. The oxidation process was monitored by reversed phase HPLC (RP-18, 25 Vol.-% acetonitrile, 20 mM triethylammonium formate buffer, pH 6.1, 2 ml/min, UV 280 nm). As a control the corresponding cyclic nucleotide with phosphorothioate modification (Sp-8-pCPT-cAMPS, Biolog) was added. In summary, 15 μl peroxide, were applied.

PDE 1 from bovine heart = assay: Resistance towards phosphodiesterase: incubation with PDE 1 from bovine heart, HPLC; conditions: PDE 1, bovine heart
Protocol: For this purpose 0.1 μmol of Rp-8-bromoadenosine-3′,5′-cyclic boranophosphate (example 1) and Sp-8-bromoadenosine-3′,5′-cyclic boranophosphate […] dissolved in TRIS buffer pH 7.2 containing calcium chloride and calmodulin and incubated with PDE type I from bovine brain (Sigma-Aldrich) at 37° C. Activity of the enzyme was checked by hydrolysis of cyclic AMP. Stability was monitored by HPLC (RP-18, 11 Vol.-% propanol-2, 20 mM TEAF buffer, pH 6.8, 1 ml/min., UV 264 nm). […] This strategy of testing PDE performance was applied accordingly in degradation examples 10 and 11.
Thus, Rp-8-Br-cAMPB (example 1) and Sp-8-Br-cAMPS (Biolog, Bremen/Germany) were incubated with PDE 1 from bovine heart (Sigma-Aldrich) and monitored by HPLC as described above.
Rp-2′-O-Me-cAMPB (example 7) and Sp-2′-O-Me-cAMPS (Biolog, Bremen/Germany).

PDE IV (A4B) = target: T2, PDE IV (A4B) (Homo sapiens, UniProt P27815); assay: Stability against PDE IV, HPLC; assay type: in vitro ADME; conditions: human, Houslay lab), pH 7.2, read-out: half life of hydrolysis
T2 construct: Houslay lab, Glasgow/Scotland (obtained from another laboratory)
Protocol: Next, stability of the disclosed boranophosphates against PDE IV (A4B, Houslay lab, Glasgow/Scotland) was tested in similar experiments as described above.

T2 sequence (P27815 whole entry): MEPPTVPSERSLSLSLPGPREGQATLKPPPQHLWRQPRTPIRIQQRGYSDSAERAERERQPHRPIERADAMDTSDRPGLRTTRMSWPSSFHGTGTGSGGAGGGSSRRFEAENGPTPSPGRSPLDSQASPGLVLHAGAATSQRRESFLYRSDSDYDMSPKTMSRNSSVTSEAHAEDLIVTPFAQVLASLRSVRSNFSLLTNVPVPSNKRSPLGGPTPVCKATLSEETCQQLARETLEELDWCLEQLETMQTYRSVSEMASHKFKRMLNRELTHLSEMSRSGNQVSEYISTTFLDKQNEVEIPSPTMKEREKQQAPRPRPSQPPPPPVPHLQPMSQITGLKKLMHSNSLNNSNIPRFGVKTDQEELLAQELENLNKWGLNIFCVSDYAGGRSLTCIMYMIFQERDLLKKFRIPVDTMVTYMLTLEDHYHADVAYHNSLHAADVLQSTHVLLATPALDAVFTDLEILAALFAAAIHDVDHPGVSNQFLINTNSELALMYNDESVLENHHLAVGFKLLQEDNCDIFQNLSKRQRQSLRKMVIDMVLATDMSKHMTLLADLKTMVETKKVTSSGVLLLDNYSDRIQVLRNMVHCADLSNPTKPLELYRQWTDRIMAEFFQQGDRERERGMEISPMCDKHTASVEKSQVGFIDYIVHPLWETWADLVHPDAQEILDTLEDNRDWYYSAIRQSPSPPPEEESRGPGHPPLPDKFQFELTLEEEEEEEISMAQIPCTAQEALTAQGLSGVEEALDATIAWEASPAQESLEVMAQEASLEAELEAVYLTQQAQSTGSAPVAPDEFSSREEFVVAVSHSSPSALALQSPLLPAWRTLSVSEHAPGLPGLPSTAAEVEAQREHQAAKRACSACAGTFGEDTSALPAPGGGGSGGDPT
protein kinase A type I alpha holoenzyme, sequence (P10644 whole entry): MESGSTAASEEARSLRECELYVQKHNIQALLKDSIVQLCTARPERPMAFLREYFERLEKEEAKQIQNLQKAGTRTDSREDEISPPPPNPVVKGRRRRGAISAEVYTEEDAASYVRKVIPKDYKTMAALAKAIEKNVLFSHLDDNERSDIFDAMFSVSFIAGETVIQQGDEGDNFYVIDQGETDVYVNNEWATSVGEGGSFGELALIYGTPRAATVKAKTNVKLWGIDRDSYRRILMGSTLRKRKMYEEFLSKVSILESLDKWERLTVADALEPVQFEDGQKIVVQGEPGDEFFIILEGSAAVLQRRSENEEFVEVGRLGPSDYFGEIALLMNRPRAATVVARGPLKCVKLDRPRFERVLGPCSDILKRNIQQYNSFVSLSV

2′-O-Methyladenosine-3′,5′-cyclic boranophosphate, Sp-isomer [Sp-2′-O-Me-cAMPB]
effect on protein kinase A type I alpha holoenzyme [1]: neither Rp- nor Sp-2′-O-Me-cAMPB did modulate the kinase in any way

6-Chloropurine-1-β-D-ribofuranoside-3′,5′-cyclic boranophosphate, Rp-isomer [Rp-6-Cl-cPuMPB]
peak area, % of the original area [2]: 93%

8-Bromoguanosine-3′,5′-cyclic boranophosphate, Rp-isomer [Rp-8-Br-cGMPB]
activation of protein kinase G (protein kinase G I α): activated the kinase

O[C@@H]1[C@@H]2OP(O)(=S)OC[C@H]2O[C@H]1n1cnc2c(Cl)ncnc21 (single isomer, unassigned) [Sp-6-Cl-cPuMPS, 6-chloropurine-1-β-D-ribofuranoside-3′,5′-cyclic phosphorothioate, Sp-isomer, reference compound]
degraded [2]: 37%

Nc1ccn([C@@H]2O[C@@H]3COP(O)(=S)O[C@H]3[C@H]2O)c(=O)n1 (single isomer, unassigned) [Sp-cCMPS, cytidine-3′,5′-cyclic phosphorothioate, Sp-isomer, reference compound]
oxidation by peroxide [3]: rapidly oxidized | HPLC Area % ([3]; Time 0 min): 100% | HPLC Area % ([3]; Time 10 min): 94% | HPLC Area % ([3]; Time 20 min): 85% | HPLC Area % ([3]; Time 34 min): 69% | HPLC Area % ([3]; Time 65 min): 46% | HPLC Area % ([3]; Time 81 min): 23% | HPLC Area % ([3]; Time 92 min): 14% | HPLC Area % ([3]; Time 98 min): 13%

Nc1ncnc2c1nc(Br)n2C1OC2COP(O)(=S)OC2C1O (stereo not drawn) [Rp-8-Br-cAMPS, Rp-8-bromoadenosine-3′,5′-cyclic phosphorothioate, reference compound]
HPLC signal after oxidation [4]: completely vanished

B[PH]1(O)OC[C@H]2O[C@@H](n3c(Sc4ccc(Cl)cc4)nc4c(N)ncnc43)C(OC)[C@@H]2O1 (stereo partly drawn) [Rp-8-pCPT-2′-O-Me-cAMPB, 8-(4-Chlorophenylthio)-2′-O-methyladenosine-3′,5′-cyclic boranophosphate, Rp-isomer]
peak area, % of the original area [5]: 50%

B[PH]1(O)OC[C@H]2O[C@@H](n3c(Sc4ccc(Cl)cc4)nc4c(N)ncnc43)C(O)[C@@H]2O1 (stereo partly drawn) [Rp-8-pCPT-cAMPB, 8-(4-Chlorophenylthio)adenosine-3′,5′-cyclic boranophosphate, Rp-isomer]
HPLC Area % ([6]; Time 0.00 h): 100% | HPLC Area % ([6]; Time 0.50 h): 87.51% | HPLC Area % ([6]; Time 1.00 h): 82.89% | HPLC Area % ([6]; Time 1.50 h, RT): 79% and 79.25% | HPLC Area % ([6]; Time 18.00 h): 30% and 29.56%

B[PH]1(O)OC[C@H]2O[C@@H](n3ccc(N)nc3=O)C(O)[C@@H]2O1 (stereo partly drawn) [Rp-cCMPB, Cytidine-3′,5′-cyclic boranophosphate, Rp-isomer]
oxidation by peroxide [3]: considerably higher resistance | HPLC Area % ([3]; Time 0 min): 100% | HPLC Area % ([3]; Time 10 min): 99% | HPLC Area % ([3]; Time 20 min): 98% | HPLC Area % ([3]; Time 34 min): 96% | HPLC Area % ([3]; Time 65 min): 91% | HPLC Area % ([3]; Time 81 min): 84% | HPLC Area % ([3]; Time 92 min): 78% | HPLC Area % ([3]; Time 98 min): 79%

COC1C2OP(O)(=S)OCC2OC1n1cnc2c(N)ncnc21 (stereo not drawn) [Sp-2′-O-Me-cAMPS, reference compound]
half life of degradation (PDE 1 from bovine heart): 1800 min

CO[C@H]1C2OP(O)(=S)OC[C@H]2O[C@H]1n1c(Sc2ccc(Cl)cc2)nc2c(N)ncnc21 (stereo partly drawn) [Sp-8-pCPT-2′-O-Me-cAMPS, reference compound]
peak area, % of the original area [5]: completely degraded

Nc1ncnc2c1nc(Sc1ccc(Cl)cc1)n2[C@@H]1O[C@@H]2COP([O-])(=S)O[C@H]2[C@H]1O.[Na+] (stereo partly drawn) [Sp-8-pCPT-cAMPS, reference compound]
HPLC Area % ([6]; Time 0.00 h): 100% | HPLC Area % ([6]; Time 0.50 h): 81.7% | HPLC Area % ([6]; Time 1.00 h): 57.47% | HPLC Area % ([6]; Time 1.50 h, RT): 45.71% | HPLC Area % ([6]; Time 18.00 h): completely vanished | HPLC Area % ([6]; Time 18.00 h, listed as Sp-8-pCPT-CAMPS): 0% | degraded ([6]; after 1.5 hours at RT): more than 50%

Nc1ncnc2c1ncn2[C@@H]1O[C@@H]2COP(=O)(O)O[C@H]2[C@H]1O [cAMP, cyclic adenosine-3′,5′-monophosphate, reference compound]
half-life (PDE IV (A4B)): 5 min
